Publication PMC7893915, “Assessing cross-resistance within the pyrethroids in terms of their interactions with key cytochrome P450 enzymes and resistance in vector populations” (Parasites & Vectors, 2021)
pIC50: −log10 of the molar value. Read-outs that look alike come from different tables or passages of the source.

Experiments:
CYP6M2 = settings: Incubation time 2h; mean ± SD; ref [38], [41]; cited from earlier work
CYP6P3 [1] = settings: cited from earlier work
CYP9J5 = settings: read-out: IC50 CYP9J5, inhibition of diethoxyfluorescein metabolism, cited from earlier work
CYP6M7 = settings: two earlier studies; ref [28]; cited from earlier work
CYP6P9b = settings: two earlier studies; ref [28]; cited from earlier work
CYP6P3 [2] = settings: Incubation time 2h; mean ± SD; ref [38], [41]; cited from earlier work
CYP6P9a = settings: two earlier studies; ref [28]; cited from earlier work
CYP6Z2 [3] = molecular target: T1, CYP6Z2 (Anopheles gambiae, UniProt Q7PNB5); test: Inhibition screening of pyrethroids, diethoxyfluorescein, CYP6Z2; type: biochemical
T1 sequence (Q7PNB5 1-492): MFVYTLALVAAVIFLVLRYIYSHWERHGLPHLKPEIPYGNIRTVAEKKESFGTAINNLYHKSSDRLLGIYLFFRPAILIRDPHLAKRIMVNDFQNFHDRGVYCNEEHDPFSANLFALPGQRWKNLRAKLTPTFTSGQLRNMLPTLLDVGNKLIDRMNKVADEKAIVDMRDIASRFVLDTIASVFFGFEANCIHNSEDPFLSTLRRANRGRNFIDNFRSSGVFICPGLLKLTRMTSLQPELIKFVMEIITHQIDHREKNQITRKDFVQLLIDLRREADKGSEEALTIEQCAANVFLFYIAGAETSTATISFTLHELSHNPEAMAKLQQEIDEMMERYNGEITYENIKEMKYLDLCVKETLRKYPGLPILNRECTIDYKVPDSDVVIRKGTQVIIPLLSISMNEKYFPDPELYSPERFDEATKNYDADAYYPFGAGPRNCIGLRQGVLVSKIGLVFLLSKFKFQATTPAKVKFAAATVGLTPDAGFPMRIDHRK
T1 sequence (Q86QH5 1-679 partner): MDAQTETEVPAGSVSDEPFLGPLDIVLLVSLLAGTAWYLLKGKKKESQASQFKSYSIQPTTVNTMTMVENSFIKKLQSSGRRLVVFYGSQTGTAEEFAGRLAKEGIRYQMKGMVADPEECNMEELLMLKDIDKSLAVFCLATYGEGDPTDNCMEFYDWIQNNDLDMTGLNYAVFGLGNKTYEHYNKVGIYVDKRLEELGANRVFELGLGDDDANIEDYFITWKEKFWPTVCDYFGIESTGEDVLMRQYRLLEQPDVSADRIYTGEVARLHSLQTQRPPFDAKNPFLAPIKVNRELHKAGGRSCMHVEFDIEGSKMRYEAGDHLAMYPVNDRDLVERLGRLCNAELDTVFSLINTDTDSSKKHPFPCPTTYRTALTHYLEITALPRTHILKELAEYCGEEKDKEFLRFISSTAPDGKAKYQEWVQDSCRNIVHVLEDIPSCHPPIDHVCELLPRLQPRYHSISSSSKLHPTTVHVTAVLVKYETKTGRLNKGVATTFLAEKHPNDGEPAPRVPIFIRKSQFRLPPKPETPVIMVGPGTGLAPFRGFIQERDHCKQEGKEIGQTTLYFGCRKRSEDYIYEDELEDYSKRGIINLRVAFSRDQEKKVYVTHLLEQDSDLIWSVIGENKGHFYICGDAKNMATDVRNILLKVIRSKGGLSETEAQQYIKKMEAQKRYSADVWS

CYP6Z2 [4] = molecular target: T1, CYP6Z2; settings: read-out: IC50 CYP6Z2; inhibition of diethoxyfluorescein metabolism; footnote a; ref Yunta et al. 2016[8]; cited from earlier work
[5] = test system: An. funestus strain, FUMOZ-R; parameters: method as in PMID 26930058; settings: strain with upregulated P450 levels without any target-site mutations; ref [47]; cited from earlier work
[6] = read-out: IC50 CYP6P3, inhibition of diethoxyfluorescein metabolism, footnote b, ref Yunta et al. 2019[10]
[7] = footnote b, ref Yunta et al. 2019[10]
[8] = footnote a, ref Yunta et al. 2016[8]

Cc1c(COC(=O)[C@@H]2[C@H](/C=C(\Cl)C(F)(F)F)C2(C)C)cccc1-c1ccccc1 (racemic) [Bifenthrin, bifenthrin]
% Insecticide depletion CYP6M2 (CYP6M2): 38.9 ± 1.6% | pIC50 (CYP6P3 [1]; [6]): 5.46 | pIC50 (CYP9J5; [7]): 5.60 | depletion (metabolised) by CYP6M7 (CYP6M7): 62% | depletion (metabolised) by CYP6P9b (CYP6P9b): 71% | % Insecticide depletion CYP6P3 (CYP6P3 [2]): 76.7 ± 0.3% | depletion (metabolised) by CYP6P9a (CYP6P9a): 68% | pIC50 (CYP6Z2 [3]): 4.68

CC1(C)[C@H](C(=O)O[C@H](C#N)c2cccc(Oc3ccccc3)c2)[C@@H]1/C=C(\Cl)C(F)(F)F (racemic) [λ-Cyhalothrin, λ-cyhalothrin]
% Insecticide depletion CYP6M2 (CYP6M2): 49.4 ± 0.5% | pIC50 (CYP6P3 [1]; [6]): 5.02 | pIC50 (CYP9J5; [7]): 5.38 | % Insecticide depletion CYP6P3 (CYP6P3 [2]): 83.3 ± 15.4% | pIC50 (CYP6Z2 [3]): 4.73

CC1(C)[C@H](C(=O)O[C@H](C#N)c2cccc(Oc3ccccc3)c2)[C@@H]1C=C(Br)Br [Deltamethrin, deltamethrin]
pIC50 (CYP6Z2 [4]): 4.86 | pIC50 (CYP6P3 [1]; read-out: IC50 CYP6P3, inhibition of diethoxyfluorescein metabolism, footnote a, ref Yunta et al. 2016[8]): 5.49 | pIC50 (CYP9J5; [8]): 5.21 | effectiveness with or without piperonyl butoxide (PBO), in words [5]: only effective when partnered with PBO

CCOc1ccc(C(C)(C)COCc2cccc(Oc3ccccc3)c2)cc1 [Etofenprox, etofenprox]
% Insecticide depletion CYP6M2 (CYP6M2): 68.8 ± 1.1% | pIC50 (CYP6P3 [1]; [6]): 5.08 | pIC50 (CYP9J5; [7]): 5.10 | % Insecticide depletion CYP6P3 (CYP6P3 [2]): 99.8 ± 0.3% | pIC50 (CYP6Z2 [3]): 5.55

CC1(C)C(C=C(Cl)Cl)C1C(=O)OCc1cccc(Oc2ccccc2)c1 (stereo not shown) [Permethrin, permethrin]
pIC50 (CYP6Z2 [4]): 4.86 | % Insecticide depletion CYP6M2 (CYP6M2): 58.5 ± 2.2% | pIC50 (CYP6P3 [1]): 5.17 | pIC50 (CYP9J5; [8]): 5.19 | % Insecticide depletion CYP6P3 (CYP6P3 [2]): 100.0 ± 0.0% | effectiveness with or without piperonyl butoxide (PBO), in words [5]: only effective when partnered with PBO
